Results published in patent publication US6770659B2, “Benzoyl piperidine compounds” (SK Corporation, priority 2002, dated 2004).
Read-outs that look alike come from different tables or passages of the source.

System: climbing behavior induced by apomorphine in mice
Assay: Climbing Mouse Assay (anti-climbing behavior test)
Format: in vivo
Conditions: ICR CD strain male mice, apomorphine challenge; for ED50: Mus musculus
Source text: This activity was examined through the anti-climbing behavior test, i.e. the test for suppressing the climbing behavior induced by apomorphine in mice. A designated amount of the test compound was intraperitoneally or orally administered to several groups of ICR CD strain male mice (body weight, 20 to 25 g; one group, 6 mice), and each of the animals was charged in an individual column cage of 12 cm in diameter and 14 cm in height having metal poles (each pole, 2 mm in diameter) vertically installed and arranged along the periphery with interval of 1 cm.
Compounds to be tested for antipsychotic activity are injected intraperitoneally or given orally at various time intervals, e.g. 30 minutes, 60 minutes, etc., prior to the apomorphine challenge at a screening dose of 0.1-60 mg/kg.
For evaluation of climbing, 3 readings are taken at 10, 20 and 30 minutes after apomorphine administration according to the following scale:
Mice consistently climbing before the injection of apomorphine will be discarded.
With full-developed apomorphine climbing, the animals are hanging on to the cage walls, rather motionless, over longer periods of time. By contrast, climbing due to mere motor stimulation usually only lasts a few seconds.
The climbing scores are individually totaled (maximal score: 12 per mouse over 3 readings) and the total score of the control group (vehicle intraperitoneally-apomorphine subcutaneously) is set to 100%. ED50 values with 95% confidence limits, calculated by a linear regression analysis, of some of the compounds of the instant invention as well as a standard antipsychotic agent are presented in Table I.

[1] = intraperitoneal administration, read-out: Climbing Mouse Assay ED50 i.p.
[2] = oral administration, read-out: Climbing Mouse Assay ED50 p.o. (converted)

Structure (SMILES) | ED50 [1] [mg/kg] | ED50 [2] [mg/kg] | Climbing Mouse Assay ED50 i.p. (intraperitoneal administration) [mg/kg] | Climbing Mouse Assay ED50 p.o. (oral administration) [mg/kg]
CN1CCN(C2=Nc3cc(Cl)ccc3Nc3ccccc32)CC1 [Clozapine, reference compound] | 6.3 | 13.5 |  | 
CCc1ccc(C(CN2CCC(C(=O)c3ccc(F)cc3)CC2)OC)cc1 (centres unmarked) [{1-[2-(4-Ethyl-phenyl)-2-methoxy-ethyl]-piperidin-4-yl}-(4-fluoro-phenyl)-methanone] | 0.87 |  |  | 
CC(C)c1ccc(C(CN2CCC(C(=O)c3ccc(F)cc3)CC2)n2cncn2)cc1.Cl.Cl.Cl (centres unmarked) [(4-Fluoro-phenyl)-{1-[2-(4-isopropyl-phenyl)-2-[1,2,4]triazoyl-1-yl-ethyl]-piperidin-4-yl}-methanone trihydrochloride] |  |  | 3.1 | 4.7
Cl.NC(=O)O[C@@H](CN1CCC(C(=O)c2ccc(F)cc2)CC1)c1ccccc1 [(R)-Carbamic acid 2-[4-(4-fluoro-benzoyl)-piperidin-1-yl]-1-phenyl-ethyl ester; hydrochloride] | 17.8 | 46.2 |  | 
Cl.O=C(NCc1ccccc1)OC(CN1CCC(C(=O)c2ccc(F)cc2)CC1)c1ccccc1 (centres unmarked) [Benzyl-carbamic acid 2-[4-(4-fluoro-benzoyl)-piperidin-1-yl]-1-phenyl-ethyl ester; hydrochloride] | 2.2 | 7.1 |  | 
COC(CN1CCC(C(=O)c2ccc(F)cc2)CC1)c1ccc(C(C)C)cc1 (centres unmarked) [(4-Fluoro-phenyl)-{1-[2-(4-isopropyl-phenyl)-2-methoxy-ethyl]-piperidin-4-yl}-methanone] | 0.17 | 0.41 |  | 
Cl.NC(=O)OC(CN1CCC(C(=O)c2ccc(F)cc2)CC1)c1cccc([N+](=O)[O-])c1 (centres unmarked) [Carbamic acid 2-[4-(4-fluoro-benzoyl)-piperidin-1-yl]-1-(3-nitro-phenyl)-ethyl ester; hydrochloride] | 2.6 |  |  | 
Cl.NC(=O)OC(CN1CCC(C(=O)c2ccc(F)cc2)CC1)c1cccc(Cl)c1 (centres unmarked) [Carbamic acid 1-(3-chloro-phenyl)-2-[4-(4-fluoro-benzoyl)-piperidin-1-yl]-ethyl ester; hydrochloride] | 0.56 | 0.94 |  | 
CO[C@H](CN1CCC(C(=O)c2ccc(F)cc2)CC1)c1ccc([N+](=O)[O-])cc1 [(S)-(4-Fluoro-phenyl)-{1-[2-methoxy-2-(4-nitro-phenyl)-ethyl]-piperidin-4-yl}-methanone] | 4.5 | 16.9 |  | 
CO[C@H](CN1CCC(C(=O)c2ccc(F)cc2)CC1)c1ccc(C(C)C)cc1 [(S)-(4-Fluoro-phenyl)-{1-[2-(4-isopropyl-phenyl)-2-methoxy-ethyl]-piperidin-4-yl}-methanone] | 0.13 | 0.09 |  | 
Cl.NC(=O)OC(CN1CCC(C(=O)c2ccc(F)cc2)CC1)c1ccc(C(F)(F)F)cc1 (centres unmarked) [Carbamic acid 2-[4-(4-fluoro-benzoyl)-piperidin-1-yl]-1-(4-trifluoromethyl-phenyl)-ethyl ester; hydrochloride] | 1.8 |  |  | 
Cc1nc2n(c(=O)c1CCN1CCC(c3noc4cc(F)ccc34)CC1)CCCC2 [Risperidone, reference compound] | 0.11 | 0.29 |  | 
Cl.NC(=O)OC(CN1CCC(C(=O)c2ccc(F)cc2)CC1)c1ccccc1 (centres unmarked) [Carbamic acid 2-[4-(4-fluoro-benzoyl)-piperidin-1-yl]-1-phenyl-ethyl ester; hydrochloride] | 4.8 | 9.7 |  | 
CC(C)OC(=O)OC(CN1CCC(C(=O)c2ccc(F)cc2)CC1)c1cccc(Cl)c1 (centres unmarked) [Carbonic acid 1-(3-chloro-phenyl)-2-[4-(4-fluoro-benzoyl)-piperidin-1-yl]-ethyl ester isopropyl ester] | 6.2 |  |  | 
Cl.NC(=O)OC(COc1ccccc1)CN1CCC(C(=O)c2ccc(F)cc2)CC1 (centres unmarked) [Carbamic acid 1-[4-(4-fluoro-benzoyl)-piperidin-1-ylmethyl]-2-phenoxy-ethyl ester; hydrochloride] | 2 | 8.5 |  | 
COC(CN1CCC(C(=O)c2ccc(F)cc2)CC1)c1ccc([N+](=O)[O-])cc1.Cl (centres unmarked) [(4-Fluoro-phenyl)-{1-[2-methoxy-2-(4-nitro-phenyl)-ethyl]-piperidin-4yl}-methanone; hydrochloride] | 5.9 | 51.2 |  | 
Cl.NC(=O)O[C@H](CN1CCC(C(=O)c2ccc(F)cc2)CC1)c1ccccc1 [(S)-Carbamic acid 2-[4-(4-fluoro-benzoyl)-piperidin-1-yl]-1-phenyl-ethyl ester; hydrochloride] | 0.96 | 4.3 |  | 
CCOC(CN1CCC(C(=O)c2ccc(F)cc2)CC1)c1ccc([N+](=O)[O-])cc1 (centres unmarked) [{1-[2-Ethoxy-2-(4-nitro-phenyl)-ethyl]-piperidin-4-yl}-(4-fluoro-1phenyl)-methanone] |  |  | 4.16 | 
CCc1ccc([C@@H](CN2CCC(C(=O)c3ccc(F)cc3)CC2)OC)cc1 [(S)-{1-[2-(4-Ethyl-phenyl)-2-methoxy-ethyl]-piperidin-4-yl}-(4-fluoro-phenyl)-methanone] | 0.31 | 1.2 |  | 
CO[C@@H](CN1CCC(C(=O)c2ccc(F)cc2)CC1)c1ccc([N+](=O)[O-])cc1 [(R)-(4-Fluoro-phenyl)-{1-[2-methoxy-2-(4-nitro-phenyl)-ethyl]-piperidin-4-yl}-methanone] | 24.2 |  |  | 
Cl.NC(=O)OC(CN1CCC(C(=O)c2ccc(F)cc2)CC1)c1ccc(Cl)c(Cl)c1 (centres unmarked) [Carbamic acid 1-(3,4-dichloro-phenyl)-2-[4-(4-fluoro-benzoyl)-piperidin-1-yl]-ethyl ester; hydrochloride] | 0.32 | 0.48 |  | 
Cc1ccc(C(CN2CCC(C(=O)c3ccc(F)cc3)CC2)n2cncn2)cc1C (centres unmarked) [{1-[2-(3,4-Dimethyl-phenyl)-2-[1,2,4]triazol-1-yl-ethyl]-piperidin-4-yl}-(4-fluoro-phenyl)-methanone] | 4.5 | 16.6 |  | 
O=C(c1ccc(F)cc1)C1CCN(CC(COc2ccccc2)OC(=O)N2CCCCCC2)CC1 (centres unmarked) [Azepane-1-carboxylic acid 1-[4-(4-fluoro-benzoyl)-piperidin-1-ylmethyl]-2-phenoxy-ethyl ester] | 1.5 |  |  | 
CCc1ccc(C(CN2CCC(C(=O)c3ccc(F)cc3)CC2)OC(=O)OC)cc1 (centres unmarked) [Carbonic acid 1-(4-ethyl-phenyl)-2-[4-(4-fluoro-benzoyl)-piperidin-1-yl]-ethyl ester methyl ester] | 2.4 | 7.6 |  | 
